For this data set the following is noted: 313.15 K, Ring tensiometer.

Each structure is given as a SMILES string. Numbers after ± are expanded uncertainties.

The term surface tension liquid-gas denotes the work needed to enlarge the surface of a liquid by unit area.

Turning to `O` [water], the surface tension liquid-gas stood at 67.2 ± 2.8 mN/m.

The record behind these values is the NIST ThermoML archive (doi:10.1021/acs.jced.8b00372).
